Test results as given in patent US7754754B2, “Pharmaceutical formulations containing substituted 2 heteroarylaminoacetic acid compounds” (Gruenenthal GmbH, priority 2003, dated 2010).

Columns and labels:
male albino mice (NMRI) = test: Formaldehyde test (mouse), second (late) phase; format: in vivo; settings: formaldehyde-induced nociception
Experimental: (b) Formaldehyde Test (Mouse)
The investigations for determining the antinociceptive action of the substituted 2-heteroarylaminoacetic acid compounds of the above general formula I used according to the invention are carried out by the formaldehyde test on male albino mice (NMRI, 25-35 g, Iffa, Credo, Belgium).
In the formaldehyde test, a distinction is drawn between the first (early) phase (0-15 min after formaldehyde injection) and the second (late) phase (15-60 min after formaldehyde injection) (D. Dubuisson et al., Pain, vol. 4, pp. 161-174 (1977)). The early phase, being a direct response to the formaldehyde injection, is considered to be a model of acute pain, while the late phase is considered to be a model of persistent (chronic) pain (T. J. Coderre et al., Pain, vol. 52, pp. 259-285 (1993)). The corresponding literature descriptions are hereby introduced as a reference and are deemed to be part of the disclosure.
The substituted 2-heteroarylaminoacetic acid compounds of the above general formula I used according to the invention are investigated in the second phase of the formaldehyde test in order to obtain information regarding the action of the substances in chronic/inflammatory pain.
A nociceptive reaction is induced in the freely mobile test animals by a single, subcutaneous formaldehyde injection (20 μl, 1% aqueous solution) into the dorsal side of the rear hind paw, the reaction being expressed by distinct licking and biting of the affected paw.
For the investigation period in the second (late) phase of the formaldehyde test, nociceptive behaviour is continuously recorded by observing the animals. […] After injection of the substances which are antinociceptively active in the formaldehyde test, the described behaviours of the animals are reduced or even eliminated. In the same manner as in the substance tests, in which the animals receive an injection of test substance before the formaldehyde, the control animals are injected with vehicle, i.e. solvent (for example 0.9% NaCl solution) before administration of the formaldehyde. The behaviour the animals after administration of the substance (n=10 per substance dose) is compared with a control group (n=10). On the basis of the quantification of the pain behaviour, the action of the substance in the formaldehyde test is determined as a percentage change of the control. ED50 calculations are carried out by regression analysis. The time of administration before the formaldehyde injection was selected as a function of the mode of administration of the compounds used according to the invention (intraperitoneal: 15 min; intravenous: 5 min).

[1] = biological target: T1, glycineB binding site of the NMDA receptor channel (Rattus norvegicus, UniProt P35439); test: Receptor binding study, displacement of (3H)-MDL 105.519 from rat brain membrane homogenates; settings: 10 μM of the compound under test, rat cortex and hippocampus membrane homogenate; for inhibition at 10 µM: read-out: % inhibition (percentage fraction of the bound radioactive ligand displaced from its specific binding)
T1 construct: the cortex and hippocampus are dissected out of freshly harvested rat brains and homogenised; from tissue; host or cells: rat (Wistar, male) brain cortex and hippocampus membrane homogenate
Experimental: (a) Receptor Binding Study (glycineB Binding Site of the NMDA Receptor Channel)
The affinity of the compounds of the above general formula I used according to the invention for the glycine binding site of the NMDA receptor channel is determined using brain membrane homogenates (homogenate of cortex and hippocampus area from the brain of male rats, Wistar strain), as for example described in B. M. Baron, B. W. Siegel, B. L. Harrison, R. S. Gross, C. Hawes and P. Towers, Journal of Pharmacology and Experimental Therapeutics, (1996), vol. 279, page 62. The corresponding literature description is hereby introduced as a reference and is deemed to be part of the disclosure.
To this end, the cortex and hippocampus are dissected out of freshly harvested rat brains and homogenised with ice cooling in 5 mmol/l of TRIS-acetate buffer, […] of sucrose, pH 7.4 (10 ml/g fresh weight) using a Potter homogeniser (Braun/Melsungen, 10 piston strokes at 500 rpm) and then centrifuged for 10 minutes at 1,000 g and 4° C. The first supernatant is collected and the sediment again homogenised with ice cooling with 5 mmol/l of tris-acetate buffer, 0.32 mol/l of sucrose, pH 7.4 (5 ml/g of original fresh weight) with the Potter homogeniser (10 piston strokes at 500 rpm) and centrifuged for 10 minutes at 1,000 g and 4° C. The resultant supernatant is combined with the supernatant from the first centrifugation and centrifuged at 17,000 g for 20 minutes at 4° C. The supernatant after this centrifugation is discarded and the membrane sediment resuspended with 5 mmol/l of TRIS-acetate buffer, pH 8.0 (20 ml/g of original fresh weight) and homogenised with 10 piston strokes at 500 rpm.
The membrane homogenate is then incubated for 1 hour at 4° C. and centrifuged for 30 minutes at 50,000 g and 4° C. The supernatant is discarded and the centrifuge tubes containing the membrane sediment are sealed with Parafilm and frozen for 24 hours at −20° C. On the following day, the membrane sediment is thawed and resuspended with ice-cold 5 mmol/I TRIS-acetate buffer, 0.1% saponin (wt./vol.), pH 7.0 (10 ml/g of original fresh weight) and homogenised with 10 piston strokes at 500 rpm and then centrifuged for 20 minutes at 50,000 g and 4° C. The resultant supernatant is discarded and the sediment resuspended in a small volume with 5 mmol/l of TRIS-acetate buffer, pH 7.0 (approx. 2 ml/g of original fresh weight) and again homogenised with 10 piston strokes at 500 rpm. After determination of the protein content, the membrane homogenate is adjusted with 5 mmol/l TRIS-acetate buffer, pH 7.0, to a protein concentration of 10 mg of protein/ml and frozen in aliquots until used for testing.
The receptor binding test is performed by thawing aliquots, diluting them 1:10 with 5 mmol/l TRIS-acetate buffer, pH 7.0, homogenising them with ice-cooling with 10 piston strokes at 500 rpm with the Potter homogeniser (10 piston strokes at 500 rpm) and centrifuging them for 60 minutes at 55,000 g at 4° C. The supernatant is decanted and the membrane sediment adjusted with ice-cold 50 mmol/l TRIS-acetate buffer, pH 7.0, to a protein concentration of 1 mg/ml and again homogenised with 10 piston strokes at 500 rpm and kept in suspension in an ice bath with stirring on a magnetic stirrer. This membrane homogenate is used in the receptor binding test in a quantity of 100 μl per 1 ml batch (0.1 mg of protein/ml in the final batch). In the binding test, the buffer used is 50 mmol/l TRIS-acetate buffer, pH 7.0, and the radioactive ligand […] of (3H)-MDL 105.519 (B. M. Baron et al. 1996). The level of nonspecific binding is determined in the presence of 1 mmol/l of glycine.
In further batches, the compounds used according to the invention are added in concentration series and the displacement of the radioactive ligand from its specific binding at the glycine-binding site of the NMDA receptor channel is determined. […]

| Compound | Inhibition (%) at dose (male albino mice (NMRI); at 46.4 mg/kg) | inhibition at 10 µM [1] [%] | Inhibition (%) at dose (male albino mice (NMRI); at 10 mg/kg) | % inhibition (percentage fraction of the bound radioactive ligand displaced from its specific binding) [1] [%] |
| --- | --- | --- | --- | --- |
| O=C(O)C(Nc1cc(Cl)cc(Cl)c1)c1cc2ccccc2s1 (centres unmarked) [Example 2, (Benzo[b]thiophen-2-yl)-(3,5-dichlorophenylamino)acetic acid] | 55% (at 46.4 mg/kg) | 85 |  |  |
| O=C(O)C(Nc1cc(Cl)cc(Cl)c1)c1csc2ccccc12 (centres unmarked) [Example 3, (Benzo[b]thiophen-3-yl)-(3,5-dichlorophenylamino)acetic acid] |  | 15 |  |  |
| O=C([O-])C(Nc1cc(Cl)cc(Cl)c1)c1cc2ccccc2o1.[Na+] (centres unmarked) [Example 6, (Benzofuran-2-yl)-(3,5-dichlorophenylamino)acetic acid, sodium salt] |  | 97 | 42% (at 10 mg/kg) |  |
| O=C([O-])C(Nc1cc(Cl)cc(Cl)c1)c1cc2ccccc2s1.[Na+] (centres unmarked) [Example 7, (Benzo[b]thiophen-2-yl)-(3,5-dichlorophenylamino)acetic acid, sodium salt] | 11% (at 46.4 mg/kg) |  |  | 85 |
| O=C([O-])C(Nc1cc(Cl)cc(Cl)c1)c1csc2ccccc12.[Na+] (centres unmarked) [Example 8, (Benzo[b]thiophen-3-yl)-(3,5-dichlorophenylamino)acetic acid, sodium salt] |  |  |  | 24 |
| (Benzo[b]furan-2-yl)-(3,5-bis(trifluoromethyl)phenyl)acetic acid, sodium salt [Example 10] | 60% (at 46.4 mg/kg) |  |  | 29 |
| (Benzo[b]thiophen-2-yl)-(3,5-bis(trifluoromethyl)phenyl)acetic acid, sodium salt [Example 9] |  |  |  | 13 |
